How the values were obtained:
[1] = tested on: mouse collagen arthritis model; assay: Mouse collagen arthritis model (arthritogenic antibody cocktail/LPS); format: in vivo; settings: for Arthritis score: 3.2 mg/kg orally once daily; for Volume of leg edema / Body weight change / Quantity of feed intake: 3.2 mg/kg
Method: For arthritis induction, an arthritogenic antibody cocktail (under the trade name of a cocktail for arthritis, Arthrogen-CIA® mAb, Arthritogenic mAb cocktail; manufactured by Iwai Chemical Pharmaceutical Co., Ltd.) recognizing four epitopes specific to collagen was used. To a mouse was intravenously administered the arthritogenic cocktail; 3 days later, LPS (100 μg) was intraperitoneally administered to thereby elicit arthritis. Arthritis was observed on day 3 after LPS dosing, which reached maximum on day 6.
Immediately before LPS dosing and 3 days later, the M5 antibody was intravenously administered at a dose of 40 μg, 150 μg or 400 μg. As the control group, a rabbit IgG-dosed group (at a dose of 400 μg) was arranged. Additionally, the anti-mouse TNF-α antibody was intravenously administered at a dose of 200 μg/mouse immediately before LPS administration and 3 days later. As the control group, a rat IgG-dosed group (at a dose of 200 μg) was arranged. Further, MTX was orally given (at a dose of 3.2 mg/kg) once daily on the very day of LPS dosing and thereafter. Then, MTX dissolved in 5 ml of 0.5% methyl cellulose solution was used. For the control group, 5 ml of 0.5% methyl cellulose solution was arranged.
Assessment was done per one group of five animals, concerning four items, namely arthritis score, leg edema, body weight change and feed intake.

[2] = tested on: human fibroblast TIG-7 adhesion to OPN; assay: Inhibition of TIG-7 cell adhesion to OPN (CHO/OPN-a coated plate); format: cell-based; settings: peptide 100 μg/ml; FIG. 1A
Method: It was examined by the following method as to whether or not the monoclonal antibodies inhibited cell adhesion to OPN. First, a 96-well plate was precoated with various concentrations of the CHO/OPN-a at 4° C. overnight, which was then treated with 0.5% BSA in PBS under conditions of 37° C. for 10 minutes, so as to block non-specific adhesion. A human fibroblast TIG-7 or SW480 cell transformed with the cDNA of an integrin subunit α9 (referred to as “α9-transformed SW480 cell” hereinafter) was suspended in D-MEM containing 0.25% BSA; 200 μl of the resulting cell suspension (at a cell concentration of 5×10^4 cells/well) was injected in a 96-well plate precoated with the CHO/OPN-a or nOPN, in the presence or absence of various concentrations of the monoclonal antibodies or synthetic peptides, for incubation at 37° C. for one hour.
The culture medium was discarded from the plate, and all the wells were rinsed twice with D-MEM containing 0.25% BSA. The adherent cells were fixed and stained with 0.5% crystal violet in 20% methanol for 30 minutes.
All the wells were rinsed three times with water, and the adherent cells were then solubilized into 20% acetic acid. The resulting supernatant recovered from each well was analyzed with an immunoreader, to measure the absorbance at 590 nm to determine the relative count of the cells adhering to the well. […]

[3] = tested on: α9-transformed SW480 cell adhesion to vitronectin; assay: Adhesion of α9-transformed SW480 cell to vitronectin; format: cell-based, human; settings: 1 μg/ml vitronectin; 200 μM peptide; FIG. 2A
[4] = tested on: murine NIH3T3 cell adhesion to mOPN/de-GST; assay: Inhibition of NIH3T3 cell adhesion to murine OPN (mOPN/de-GST); format: cell-based, mouse; settings: peptide 100 μg/ml; FIG. 7
Description: It was examined by the method described in the reference (S. Kon et al., (2002): J. Cell. Biochem., 84(2), 420-432) as to whether or not the M5 antibody might inhibit cell adhesion to OPN. As the OPN, the full-length murine OPN was used, from which the GST moiety had preliminarily been removed with PreScission protease (Amersham Pharmacia Biotech, Tokyo, Japan) (referred to as “mOPN/de-GST” hereinafter) was used. As the cell, murine NIH3T3 cell was used.

Compound | Overall effect in mouse arthritis model (arthritis score, onset of arthritis, leg edema) [1] | Arthritis score ([1]; day 3) | Arthritis score ([1]; day 4) | Arthritis score ([1]; day 5) | Arthritis score ([1]; day 6) | Volume of leg edema ([1]; Foreleg) [mL] | Volume of leg edema ([1]; Hind leg) [mL] | Body weight change ([1]; day 0 to day 3 post-dosing) [g] | Quantity of feed intake ([1]; day 0 to day 3 post-dosing) [g/mouse/day] | Body weight change ([1]; day 3 to day 6 post-dosing) [g] | Quantity of feed intake ([1]; day 3 to day 6 post-dosing) [g/mouse/day] | Inhibition of TIG-7 adhesion to OPN by peptide [2] | Inhibition of adhesion between vitronectin and α9-transformed SW480 cell by peptide [3] | Inhibition of NIH3T3 adhesion to mOPN/de-GST by peptide [4]
CN(Cc1cnc2nc(N)nc(N)c2n1)c1ccc(C(=O)N[C@@H](CCC(=O)O)C(=O)O)cc1 [MTX] | almost no pharmaceutical efficacy | 0.8 ± 0.4 | 1.8 ± 0.7 | 6.0 ± 0.6 | 6.0 ± 0.6 | 0.047 ± 0.003 | 0.132 ± 0.003 | -1.5 | 0.8 | -1.8 | 2.1 |  |  | 
GRGDSP |  |  |  |  |  |  |  |  |  |  |  | apparently inhibited | inhibited | apparently inhibited
